Measurements: patent US20040019092A1, “Non-peptide somatostatin receptor ligands” (priority 2001, published 2004)

Assay: Unidirectional brain extraction (Brain Uptake Index), single intracarotid injection
Format: in vivo, Wistar rats
Conditions: rat, 5 s after intracarotid injection, Ringer buffer as vehicle
Protocol: The unidirectional influx for [^14C]-42 was measured by the brain sampling single injection technique in adult male Wistar rats (˜220 g) under anesthesia (ketamine 130 mg/kg i.m., xylazine 1.3 mg/kg i.m.) (Oldendorf, W. H. “Measurement of brain uptake of radiolabeled substances using tritiated water internal standard” Brain Res., 1970, 24, 372-376). A bolus of ˜220 μL 0.001 M HEPES-buffered Ringer's solution pH 7.4, or rat plasma, was rapidly injected into the common carotid artery. The bolus contained [^14C]-42 (68 μg/mL) together with tritiated water (25 μCi/mL); the amount of ethanol in the injectate was 1% (v/v). The animals were decapitated 5 seconds after the injection. […] The percentage BUI (Brain Uptake Index) was calculated as […]
The brain extraction ratio E was calculated from E=BUI*0.62, where 0.62 represents the brain extraction ratio of tritiated water (Pardridge, W. M. et al. “Absence of albumin receptor on brain capillaries in vivo or in vitro” Am. J. Physiol, 1985, 249, E264-E267). In order to quantify a possible sequestration of [^14C]-42 by the brain microvasculature, the brain hemispheres of 3 rats were submitted to capillary depletion (Triguero, D, et al. “Capillary depletion method for quantifying the blood-brain barrier transcytosis of circulating peptides and plasma proteins” J. Neurochem, 1990, 54, 1882-1888). […]

- unidirectional brain extraction (BUI experiments), Ringer buffer: 41%
SMILES: N#Cc1cc(S(=O)(=O)N2C(=O)N(CCCCCN)C(=O)C2Cc2c[nH]c3ccccc23)ccc1Oc1ccc(N)cc1 (stereo not shown) [Compound 42]
